From US20230382926A1, “COMPOUNDS AND USES THEREOF” (The University of The West Indies, priority 2022, published 2023)

Assays:
[1] = test system: Carbapenem resistant Klebsiella pneumoniae; test: Broth microdilution minimum inhibitory concentration; assay type: cell-based; conditions: compound alone
Protocol: (§1) Antibacterial activity of the synthesized compounds was determined following guidelines established by the Clinical and Laboratory Standards Institute M07-A10 (CLSI 2015), following the broth microdilution method. Briefly, the test articles were dissolved in 100% DMSO, diluted by 2-fold serial titrations in the same vehicle (100% DMSO), for a total of 11 concentrations. A 4 μL aliquot of each dilution was then added to 196 μL of broth medium seeded with the bacterial suspension in wells of a 96 well plate (bacterial count: 2×10^5 to 8×10^5 colony forming units/mL final). The highest test substance concentration was 1028 μg/mL, and the final vehicle concentration was 2 percent. Following incubation, the test plate was visually examined, and each well was scored for growth or complete inhibition of growth. The minimum inhibitory concentration was determined as the lowest concentration were no growth of the bacterial was observed. Each test article was assayed in duplicate.

[2] = test system: Carbapenem resistant Acinetobacter baumannii; test: as above; assay type: cell-based; conditions: compound alone
Protocol: as §1

[3] = test system: Vancomycin resistant Enterococcus faecalis; test: as above; assay type: cell-based; conditions: compound alone
Protocol: as §1

[4] = test system: Multidrug resistant Pseudomonas aeruginosa; test: as above; assay type: cell-based; conditions: compound alone
Protocol: as §1

[5] = test system: Methicillin resistant Staphylococcus aureus; test: as above; assay type: cell-based; conditions: compound alone
Protocol: as §1

[6] = test system: MRSA; test: Rescue concentration of substituted phenyl azaindole derivatives; assay type: cell-based, Staphylococcus aureus; conditions: Amoxicillin fixed at 2 μg/mL
Protocol: (§2) The antibiotic adjuvant activity of the SPazaBIMs were evaluated in combination with representative antibiotics (representing 13 antibiotic classes) against the 19 pathogens strains listed in Table 3. To assess the adjuvant properties of the SP-azaBIM molecules, a modified checkerboard minimum inhibitory concentration assay was used. A fixed concentration of the respective antibiotic (susceptible breakpoint concentration) was mixed with a twofold dilution series of the test SP-azaBIM (FIG. 1). This was to determine the concentration of SP-azaBIM needed potentiate the antibiotic at a clinically susceptible breakpoint concentration. Antibiotic susceptible breakpoint concentrations for the respective bacteria were determined using Clinical Laboratory Standards Institute (CLSI) criteria M100 ED31.
(§3) In this study, only those antibiotics to which the bacterial was classed as resistant were included in the adjuvant assays. In this assay we recorded the rescue concentration of the SP-BIM for a respective antibiotic. The rescue concentration was defined as the concentration of the adjuvant that reduces the minimum inhibitory concentration (MIC) of an antibiotic to the susceptibility breakpoint.
(§4) Immediately prior to testing, the respective antibiotic and SP-azaBIM was dissolved in sterile deionised water at 20× the required test concentration. Each microtiter well was then inoculated with 180 μl of bacterial inoculum of 10^6 CFU/ml in ca-MHB, and 10 μl each if the antibiotic and SP-azaBIM was added to the plates. These plates were then incubated at 35° C. for 24 h under aerobic conditions. A similar method was followed for the fastidious pathogens except that they were cultured in ca-MHB with 5% sheep blood and 5% CO2.
(§5) Bacterial growth was visually inspected after the incubation period and the rescue concentration of the test SP-azaBIM was determined as the lowest concentration of the compound needed to reduce bacterial growth by 99.99% at the susceptible breakpoint concentration of the antibiotic. For example, CLSI states that Pseudomonas aeruginosa is susceptible to the Imipenem if the MIC is ≤2 μg mL^−1. If the bacteria can tolerate this concentration in vitro, then the bacteria has an intermediate or absolute resistance toward that antibiotic. The goal was to determine the concentration of SP-azaBIM needed to cause P. aeruginosa death at 2 μg mL^−1 of Imipenem therefore restoring susceptibility of the bacteria to toward the antibiotic.
(§6) Phenyl azaindole compounds are also tested for their adjuvant activities and the method is shown in Example 39.

[7] = test system: K. pneumoniae; test: as above; assay type: cell-based; conditions: for Rescue concentration, K. pneumoniae Ciprofloxacin (1 μg/mL): Ciprofloxacin fixed at 1 μg/mL; for Rescue concentration, K. pneumoniae Imipenem (1 μg/mL): Imipenem fixed at 1 μg/mL
Protocol: as §2, §3, §4, §5, §6

[8] = test system: P. aeruginosa; test: as above; assay type: cell-based; conditions: Imipenem fixed at 1 μg/mL
Protocol: as §2, §3, §4
Bacterial growth was visually inspected after the incubation period and the rescue concentration of the test SP-azaBIM was determined as the lowest concentration of the compound needed to reduce bacterial growth by 99.99% at the susceptible breakpoint concentration of the antibiotic. […] If the bacteria can tolerate this concentration in vitro, then the bacteria has an intermediate or absolute resistance toward that antibiotic. […]
as §6

| SMILES | MIC [1] [µg/mL] | MIC [2] [µg/mL] | MIC [3] [µg/mL] | MIC [4] [µg/mL] | MIC [5] [µg/mL] | Rescue concentration, MRSA Amoxicillin (2 μg/mL) [6] [µg/mL] | Rescue concentration, K. pneumoniae Ciprofloxacin (1 μg/mL) [7] [µg/mL] | Rescue concentration, K. pneumoniae Imipenem (1 μg/mL) [7] [µg/mL] | Rescue concentration, P. aeruginosa Imipenem (1 μg/mL) [8] [µg/mL] |
| --- | --- | --- | --- | --- | --- | --- | --- | --- | --- |
| O=[N+]([O-])c1cccc(C(O)c2c[nH]c3ncc(F)cc23)c1 (stereo not drawn) [3NO2-5Fl-7aza-OH, (5-fluoro-1H-pyrrolo[2,3-b]pyridin-3-yl)(3-nitrophenyl)methanol] | < 1020 | < 1020 | < 1020 | < 1020 | < 1020 | 128 | <256 | <256 | <256 |
| O=[N+]([O-])c1cccc(C(c2c[nH]c3cnccc23)c2c[nH]c3cnccc23)c1 [3NO2-Bis-6aza, 3,3′-((3-nitrophenyl)methylene)bis(1H-pyrrolo[2,3-c]pyridine)] | < 1020 | < 1020 | < 1020 | < 1020 | < 1020 | <256 | <256 | <256 | <256 |
| O=[N+]([O-])c1cccc(C(O)c2c[nH]c3c(Cl)nc(Br)cc23)c1 (stereo not drawn) [3NO2-5Br-7Cl-6aza-OH, (5-bromo-7-chloro-1H-pyrrolo[2,3-c]pyridin-3-yl)(3-nitrophenyl)methanol] | < 1020 | < 1020 | < 1020 | < 1020 | < 1020 | 16 | <256 | <256 | <256 |
| O=[N+]([O-])c1cccc(C(O)c2c[nH]c3cnccc23)c1 (stereo not drawn) [Compound 3NO2-6aza-OH, (3-nitrophenyl)(1H-pyrrolo[2,3-c]pyridin-3-yl)methanol] | < 1020 | < 1020 | < 1020 | < 1020 | < 1020 | 64 | 128 | 256 | <256 |
| OC(c1ccc(Br)cc1)c1c[nH]c2ncc(Cl)cc12 (stereo not drawn) [4Br-5Cl-7aza-OH, (4-bromophenyl)(5-chloro-1H-pyrrolo[2,3-b]pyridin-3-yl)methanol] | < 1020 | < 1020 | < 1020 | < 1020 | < 1020 | 8 | 32 | 32 | 256 |
| O=[N+]([O-])c1ccccc1C(O)c1c[nH]c2ncccc12 (stereo not drawn) [Compound 2NO2-7aza-OH, (2-nitrophenyl)(1H-pyrrolo[2,3-b]pyridin-3-yl)methanol] | < 1020 | < 1020 | < 1020 | < 1020 | < 1020 | 256 | <256 | <256 | <256 |
| Oc1ccc(C(O)c2c[nH]c3cnccc23)cc1 (stereo not drawn) [Compound 4OH-6aza-OH, 4-(hydroxy(1H-pyrrolo[2,3-c]pyridin-3-yl)methyl)phenol] | < 1020 | < 1020 | < 1020 | < 1020 | < 1020 | 32 | <256 | <256 | 256 |

Second part, led by results:

| MIC [1] [µg/mL] | MIC [2] [µg/mL] | MIC [3] [µg/mL] | MIC [4] [µg/mL] | MIC [5] [µg/mL] | SMILES | Rescue concentration, MRSA Amoxicillin (2 μg/mL) [6] [µg/mL] | Rescue concentration, K. pneumoniae Ciprofloxacin (1 μg/mL) [7] [µg/mL] | Rescue concentration, K. pneumoniae Imipenem (1 μg/mL) [7] [µg/mL] | Rescue concentration, P. aeruginosa Imipenem (1 μg/mL) [8] [µg/mL] |
| --- | --- | --- | --- | --- | --- | --- | --- | --- | --- |
| < 1020 | < 1020 | < 1020 | < 1020 | < 1020 | OC(c1ccc(Br)cc1)c1c[nH]c2cnc(Br)cc12 (stereo not drawn) [4Br-5Br-6aza-OH, (5-bromo-1H-pyrrolo[2,3-c]pyridin-3-yl)(4-bromophenyl)methanol] | 4 | <256 | <256 | <256 |
| < 1020 | < 1020 | < 1020 | < 1020 | < 1020 | O=[N+]([O-])c1ccccc1C(O)c1c[nH]c2cnccc12 (stereo not drawn) [Compound 2NO2-6aza-OH, (2-nitrophenyl)(1H-pyrrolo[2,3-c]pyridin-3-yl)methanol] | 256 | 256 | 128 | <256 |
| < 1020 | < 1020 | < 1020 | < 1020 | < 1020 | O=[N+]([O-])c1ccc(C(O)c2c[nH]c3c(Cl)nccc23)cc1 (stereo not drawn) [4NO2-7Cl-6aza-OH, (7-chloro-1H-pyrrolo[2,3-c]pyridin-3-yl)(4-nitrophenyl)methanol] | 8 | <256 | <256 | <256 |
| < 1020 | < 1020 | < 1020 | < 1020 | < 1020 | Oc1ccc(C(c2c[nH]c3ncc(Cl)cc23)c2c[nH]c3ncc(Cl)cc23)cc1 [4OH-Bis 5Cl 7aza, 4-(bis(5-chloro-1H-pyrrolo[2,3-b]pyridin-3-yl)methyl)phenol] | 2 | <256 | <256 | <256 |
| < 1020 | < 1020 | < 1020 | < 1020 | < 1020 | OC(c1ccc(Br)cc1)c1c[nH]c2cnc(Cl)cc12 (stereo not drawn) [4Br-5Cl-6aza-OH, (4-bromophenyl)(5-chloro-1H-pyrrolo[2,3-c]pyridin-3-yl)methanol] | 0.5 | <256 | <256 | <256 |
| < 1020 | < 1020 | < 1020 | < 1020 | < 1020 | O=[N+]([O-])c1ccc(C(O)c2c[nH]c3ncc(F)cc23)cc1 (stereo not drawn) [4NO2-5Fl-7aza-OH, (5-fluoro-1H-pyrrolo[2,3-b]pyridin-3-yl)(4-nitrophenyl)methanol] | 16 | <256 | <256 | <256 |
| < 1020 | < 1020 | < 1020 | < 1020 | < 1020 | Oc1ccc(C(O)c2c[nH]c3cnc(Cl)cc23)cc1 (stereo not drawn) [4OH-5Cl-6aza-OH, 4-((5-chloro-1H-pyrrolo[2,3-c]pyridin-3-yl)(hydroxy)methyl)phenol] | 16 | <256 | 256 | <256 |
